Experimental findings from EP0415303B1, “Pyrido [2,3-b][1,5]benzoxazepin (and thiazepin)-5(6H)-ones and -thiones and their use in the prevention or treatment of HIV infection” (BOEHRINGER INGELHEIM PHARMACEUTICALS INC., priority 1989, dated 1991) are described below.

One series has as its target T1, HIV-1 RT (Human immunodeficiency virus type 1 group M subtype B, UniProt P03367).
T1 construct: Reverse transcriptase enzyme from the LAV strain of Human Immunodeficiency Virus (HIV-1) (1) was isolated from the bacterial strain JM109; made in house; host or cells: E. coli JM109, clone pBRTprtl+ in vector pIBI21 (lac promoter, IPTG induction)
As to the kind of experiment: Reverse Transcriptase (RT) Assay: inhibition of RNA-dependent DNA polymerase activity. Type of series: biochemical. The arrangement: RT Inhibition % @ 10 »g/ml: tested at 10 µg/ml. The conditions noted are these: for RT Inhibition % @ 10 »g/ml: poly r(C)/oligo d(G) template, ³H-dGTP, 60 minutes at room temperature; for inhibition at 1 µM: compound at 1 »M (footnote *), read-out: RT Inhibition % (* % inh. @ 1 »M). The text has this: Utilizing the Reverse Transcriptase (RT) Assay described below, compounds can be tested for their ability to inhibit the RNA-dependent DNA polymerase activity of HIV-1 RT. Certain specific compounds described in the Examples which appear below, were so tested.
Among the enzymes for which Human Immunodeficiency Virus (HIV-1) encodes is a reverse transcriptase (1), so-named because it transcribes a DNA copy from an RNA template. This activity can be quantitatively measured in a cell-free enzyme assay, which has been previously described (2), and is based upon the observation that reverse transcriptase is able to use a synthetic template [poly r(C) primed with oligo d(G)] to transcribe a radio-labelled, acid-precipitable DNA strand utilizing ³H-dGTP as a substrate.
Reverse transcriptase enzyme from the LAV strain of Human Immunodeficiency Virus (HIV-1) (1) was isolated from the bacterial strain JM109 (3) expressing the DNA clone pBRTprtl+ (2) which is under the control of the lac promotor in the expression vector pIBI21 (4). An overnight culture grown in 2XYT medium (37°C, 225 rpm) (5) supplemented with 100 »g/ml ampicillin for positive selection is inoculated at a 1:40 dilution into M9 medium supplemented with 10»g/ml thiamine, 0.5% casamino acids, and 50 »g/ml ampicillin (5). The culture is incubated (37°C, 225 rpm) until it reaches an OD540 of 0.3-0.4. At that time the repressor inhibitor IPTG (isopropyl β-D-thiogalactopyranoside) is added to 0.5mM, and the mixture is incubated for 2 additional hours. Bacteria are pelleted, resuspended in a 50mM Tris, 0.6mM EDTA, 0.375M NaCl buffer and digested by the addition of lysozyme (1mg/ml) for 30 minutes on ice. The cells are lysed by the addition of 0.2% NP-40 and brought to 1M NaCl.
After removal of the insoluble debris by centrifugation, the protein is precipitated by the addition of 3 volumes of saturated aqueous ammonium sulfate. The enzyme is pelleted, resuspended in RT buffer (50mM Tris pH 7.5, 1mM EDTA, 5mM DTT, 0.1% NP-40, 0.1M NaCl, and 50% glycerol), and stored at -70°C for further use.
The 2X concentrated stock reaction mixture is aliquoted and stored at -20°C. The mixture is stable and thawed for use in each assay. This enzyme assay has been adapted to a 96 well microtiter plate system, and has been previously described (6). Tris buffer (50 mM, pH 7.4), vehicle (solvent diluted to match the compound dilution), or compounds in vehicle are dispensed into 96-well microtiter plates (10»l/well; 3 wells/ compound). The HIV-1 RT enzyme is thawed, diluted in 50mM Tris pH 7.4 so that fifteen »l of diluted enzyme contain 0.001 Unit (one unit is that amount of enzyme to transform 1 micromole of substrate per minute at 25°C), and fifteen »l are dispensed per well. Twenty »l of 0.12-0.5M EDTA are added to the first three wells of the microtiter plate. EDTA chelates the Mg⁺⁺ present and prevents reverse transcription. This group serves as background polymerization which is subtracted from all other groups. Twenty-five ul of the 2X reaction mixture are added to all wells and the assay is allowed to incubate at room temperature for 60 minutes. The assay is terminated by precipitating the DNA in each well with 50»l of 10% trichloracetic acid (TCA) (10% w/v) in sodium pyrophosphate (1% w/v). The microtiter plate is incubated for 15 minutes at 4°C and the precipitate is fixed onto #30 glass fiber paper (Schleicher & Schuell) using a Skatron semi-automatic harvester. The filters are then washed with additional TCA (5%) containing sodium pyrophosphate (1%), rinsed with aqueous ethanol (70%), dried, and transferred to scintillation vials (6). Each vial receives 2 mls of scintillation cocktail and is counted in a Beckman beta counter.
The calculation for percent inhibition is as follows: [formula]

The nature of series [1]: MTT Assay for Cellular Cytotoxicity. Type of series: cell-based. Conditions: human; H9 cells, five days incubation, MTT read at 570nm; read-out: Cytotoxicity Assay (EC₅₀). Here is the method:
In order to roughly assess the cytotoxicity of the compounds provided by the invention, several such compounds were tested in the MTT Cellular Cytotoxicity Assay described below. Compounds having a relatively high EC₅₀ are preferred.
The MTT [3-(4,5-dimethylthiazol-2-yl)-2,5 diphenyl tetrazolium bromide) assay is based on cleavage of tetrazolium bromide by metabolically active cells, resulting in a highly quantitative blue color. This assay has been previously described (1) but has been optimized for the purposes of the testing reported herein.
The H9 cell line (2), an established human lymphoma suspension cell line grown in RPMI 1640 supplemented with 10% fetal bovine serum, is used as the target cell line in the assay. Cells (100»l) are plated in microtest plate wells at a concentration of 10⁵ cells per ml in the presence of varying concentrations of inhibitor. The cells are incubated at 37°C in a humidified CO₂ incubator. Five days later, 20»l of MTT (5mg/ml in RPMI 1640, sonicated, 0.2 micron filtered, and stored at 4°C) is added to each well. After 4 hours additional incubation at 37°C, 60»l of Triton-X is added to each well and thoroughly mixed to aid the solubilization of the crystals. Absolute ethanol (5»l) is added to each well and the resulting mixture is incubated for 30 minutes at 60°C and immediately read on a plate reader (Dynatech) at a wavelength of 570nm. […]

With `CCCN1C(=O)c2cccnc2Oc2ccccc21` [Example 1, 6-(n-Propyl)pyrido[2,3-b][1,5]benzoxazepin-5(6H)-one], the “RT Inhibition % @ 10 »g/ml” value at HIV-1 RT is given as 80%. The same measure, in the same setting: then `CCN1C(=O)c2cccnc2Sc2ccccc21` [Example 2, 6-Ethylpyrido[2,3-b][1,5]benzothiazepin-5(6H)-one], with 89%. For orientation: inhibition means the percentage by which the read-out fell short of the control. Regarding `Cc1ccc2c(c1)Oc1ncc(N)cc1C(=O)N2C` [Example 3, 3-Amino-6,9-dimethylpyrido[2,3-b][1,5]benzoxazepin-5(6H)-one], the inhibition at 1 µM on HIV-1 RT amounted to 57%. In addition, in series [1], the CC50 at 120 h was 315 µM. Regarding `Cc1cc(C)c2c(c1)Oc1ncc(N)cc1C(=O)N2C` [Example 4, 3-Amino-6,7,9-trimethylpyrido[2,3-b][1,5]benzoxazepin-5(6H)-one], the inhibition at 1 µM on HIV-1 RT worked out at 92%. The same measure, in the same setting: the result for `CCN1C(=O)c2cc(N)cnc2Oc2cc(C)cc(C)c21` [Example 5, 3-Amino-7,9-dimethyl-6-ethylpyrido[2,3-b][1,5]benzoxazepin-5(6H)-one] reads 93%. With `CCCN1C(=O)c2cc(N)cnc2Oc2cc(C)cc(C)c21` [Example 6, 3-Amino-7,9-dimethyl-6-(n-propyl)pyrido[2,3-b][1,5]benzoxazepin-5(6H)-one], the inhibition at 1 µM at HIV-1 RT stood at 82%.

As for `CN1C(=O)c2cccnc2Oc2ccccc21` [Example 7, 6-Methylpyrido[2,3-b][1,5]benzoxazepin-5(6H)-one], the “RT Inhibition % @ 10 »g/ml” value on HIV-1 RT is listed as 71%.

In the case of `CCN1C(=O)c2cccnc2Oc2ccccc21` [Example 8, 6-Ethylpyrido[2,3-b][1,5]benzoxazepin-5(6H)-one], on HIV-1 RT, the “RT Inhibition % @ 10 »g/ml” value turned out to be 77%. As to `C=CCN1C(=O)c2cccnc2Oc2ccccc21` [Example 9, 6-Allylpyrido[2,3-b][1,5]benzoxazepin-5(6H)-one], on HIV-1 RT, the “RT Inhibition % @ 10 »g/ml” value was 89%. On the same count and under the same terms, then `CCC(=O)N1C(=O)c2cccnc2Oc2ccccc21` [Example 10, 6-Propionylpyrido[2,3-b][1,5]benzoxazepin-5(6H)-one], with 28%. Consider `Cc1ccc2c(c1)Oc1ncccc1C(=O)N2C` [Example 11, 6,9-Dimethylpyrido[2,3-b][1,5)benzoxazepin-5(6H)-one], for which, at HIV-1 RT, the inhibition at 1 µM worked out at 43%. The same measure, in the same setting: the result for `CCN1C(=O)c2cccnc2Oc2cc(C)ccc21` [Example 12, 6-Ethyl-9-methylpyrido[2,3-b][1,5]benzoxazepin-5(6H)-one] reads 67%. Regarding `Cc1ccc2c(c1)Oc1ncc(O)cc1C(=O)N2C` [Example 13, 3-Hydroxy-6,9-dimethylpyrido[2,3-b][1,5]benzoxazepin-5(6H)-one], the inhibition at 2.5 µM on HIV-1 RT (compound at 2.5 »M (footnote †), read-out: RT Inhibition % († % inh. @ 2.5 »M)) was 41%. `CCN1C(=O)c2cccnc2Oc2cccc(N)c21` [Example 14, 7-Amino-6-ethylpyrido[2,3-b][1,5]benzoxazepin-5(6H)-one]: the inhibition at 1 µM at HIV-1 RT worked out at 33%. For the compound `CN1C(=O)c2cccnc2Sc2ccccc21` [Example 15, 6-Methylpyrido[2,3-b][1,5]benzothiazepin-5(6H)-one], the “RT Inhibition % @ 10 »g/ml” value at HIV-1 RT came out at 85%.
